According to patent US8889683B2, “Substituted quinoxalines as inhibitors of fatty acid binding protein” (Merck Sharp & Dohme Corp., priority 2010, dated 2014):
pKd: −log10 of the molar value.

Molecular target: FABP4 (Homo sapiens, UniProt P15090)
Experiment: TdF-based ligand binding affinity (FABP inhibitory activity assay)
Conditions: TdF-based ligand binding affinity constant
Excerpt: Theoretical basis for TdF-based ligand binding affinity constant
The derivation of TdF-based ligand binding affinity constant (Kd) followed closely those previously formulated by Brandts and Lin, Biochemistry 29 (1990) 6927-6940. In brief, the binding constant of the ligand at the Tm is expressed as below: […]
where T0 is the midpoint of unfolding for unliganded protein and Tm is the midpoint of unfolding in presence of ligand. [LTm] is free ligand at Tm. The ΔHu and ΔCpu are the enthalpy of unfolding and heat capacity change of unfolding for the protein respectively. The ΔCPu is proportional to the size of protein and is an approximate quantity in the above equation (empirically, ΔCpu=(MW of protein/115)*14 cal/mol*K). Following algorithm derived by Mayhood et al, (Analytical Biochemistry 345 (2005) 187-197), the T0 and ΔHu can be determined separately from nonlinear regression fitting the temperature dependent protein alone curve to the following equation: […]
The nonlinear regression fitting in general readily reaches convergence by properly constraining the initial values for the fitting parameters (e.g. the initial “guess” for the ΔHu was constrained to 120 kcal/mol; initial Yn and mr, were set to 1 and zero to best represent the melting curve along the low temperature region; negative slope of −0.5 was initially chosen for mu; initial Tm was also constrained to 50° C.).
(see Brandts et al and Mayhood et al, shown above) where ΔHL (T) is the van't Hoff enthalpy of ligand binding at temperature T and ΔCpL is the heat capacity upon ligand binding. For simplicity, the ΔCpL and ΔHL (T) were set to zero and −7 kcal/mol respectively. (The ΔCpL accounts for minimal portion of total protein-ligand binding energetics and is therefore set to zero (For example, see Hossein Naghibi et al, Proc. Natl. Acad. Sci. 92, 5597-5599 (1995), where ΔCpL was estimated to ˜2% of ΔHL at 25° C. obtained from calorimetric study of binding RNase A and 2′-CMP)).

Chain of FABP4 (P15090 whole entry): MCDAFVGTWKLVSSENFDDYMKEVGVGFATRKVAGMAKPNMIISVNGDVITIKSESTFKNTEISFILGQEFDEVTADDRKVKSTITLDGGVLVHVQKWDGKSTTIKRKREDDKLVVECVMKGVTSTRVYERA

Row | SMILES | pKd
1 | O=C(c1nc2ccccc2nc1O)N1CCCC1Cc1ccc(F)cc1 (stereo not drawn) [Compound 1-158] | 5.70
2 | O=C(c1nc2cccc(Cl)c2nc1O)N1CCCC1Cc1cccc(F)c1 (stereo not drawn) [Compound 1-161] | 7.66
3 | O=C(c1nc2cccc(Cl)c2nc1O)N1CCCC1Cc1ccc(Cl)c(Cl)c1 (stereo not drawn) [Compound 1-162] | 8.40
4 | O=C(c1nc2ccc(C(F)(F)F)cc2nc1O)N1CCCC1Cc1cccc(F)c1 (stereo not drawn) [Compound 1-163] | 8.70
5 | O=C(c1nc2ccc(C(F)(F)F)cc2nc1O)N1CCCC1Cc1ccc(Cl)c(Cl)c1 (stereo not drawn) [Compound 1-164] | 6.26
6 | O=C(c1nc2cc(Cl)c(Cl)cc2nc1O)N1CCCC1CC1CCCCC1 (stereo not drawn) [Compound 1-165] | 6.61
7 | Nc1nc2ccccc2nc1C(=O)N1CCCC1Cc1cccc(Cl)c1 (stereo not drawn) [Compound 5-2, (3-aminoquinoxalin-2-yl)[2-(3-chlorobenzyl)pyrrolidin-1-yl]methanone] | 5.00

Now from value to compound:

Row | pKd | SMILES
8 | 5.09 | O=C(c1nc2ccccc2nc1O)N1CCCC[C@@H]1Cc1cccc(Cl)c1 [Compound 7-7, (R)-(2-(3-chlorobenzyl)piperidin-1-yl)(3-hydroxyquinoxalin-2-yl)methanone]
9 | 5.92 | O=C(c1nc2ccccc2nc1O)N1CCCC[C@H]1Cc1cccc(Cl)c1 [Compound 7-8, (S)-(2-(3-chlorobenzyl)piperidin-1-yl)(3-hydroxyquinoxalin-2-yl)methanone]
10 | 6.60 | O=C(c1nc2ccccc2nc1O)N1CCC[C@H]1Cc1cc(Cl)cc(Cl)c1 [Compound 8-6, (S)-(2-(3,5-dichlorobenzyl)pyrrolidin-1-yl)(3-hydroxyquinoxalin-2-yl)methanone]
11 | 6.52 | O=C(c1nc2ccccc2nc1O)N1CCC[C@H]1Cc1cccc(Cl)c1 [Compound 8-8, (S)-(2-(3-chlorobenzyl)pyrrolidin-1-yl)(3-hydroxyquinoxalin-2-yl)methanone]
12 | 5.30 | O=C(c1nc2ccccc2nc1O)N1CCC[C@@H]1Cc1cccc(Cl)c1 [Compound 8-9, (R)-(2-(3-chlorobenzyl)pyrrolidin-1-yl)(3-hydroxyquinoxalin-2-yl)methanone]
13 | 8.40 | O=C(c1nc2cc(Cl)c(Cl)cc2nc1O)N1CCC[C@H]1Cc1cc(Cl)cc(Cl)c1 [Compound 8-11]
14 | 8.89 | O=C(c1nc2cc(F)c(F)cc2nc1O)N1CCC[C@H]1Cc1cc(Cl)cc(Cl)c1 [Compound 8-12]

Molecular target: FABP5 (Homo sapiens, UniProt Q01469)
Sequence (Q01469 whole entry): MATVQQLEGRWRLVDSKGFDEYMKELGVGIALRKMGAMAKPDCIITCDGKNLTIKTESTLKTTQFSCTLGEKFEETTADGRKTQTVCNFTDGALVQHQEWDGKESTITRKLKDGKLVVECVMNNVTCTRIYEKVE
Experiment: FABP5 TdCD binding affinity
Conditions: not given

Row | SMILES | pKd
15 | O=C(c1nc2ccccc2nc1O)N1CCC[C@H]1Cc1cccc(Cl)c1 [Compound 8-8, (S)-(2-(3-chlorobenzyl)pyrrolidin-1-yl)(3-hydroxyquinoxalin-2-yl)methanone] | 6.30
